According to patent publication US20200129535A1, “DESMOCOLLIN 1 INHIBITORS FOR THE PREVENTION OR TREATMENT OF ATHEROSCLEROSIS” (priority 2017, published 2020):
Where two headings read alike, the source gives them in different places.

Test system: Primary human skin fibroblasts
Test: apoA-I-mediated cholesterol efflux study (promotion of HDL biogenesis) with compounds
Type: cell-based
Settings: for EC50: Homo sapiens, Skin fibroblast, [3H]-cholesterol-labelled, cholesterol-loaded fibroblasts, 5 μg/ml apoA-I for 24 h, compound added during equilibration and apoA-I treatment
Experimental: FIGS. 17(A) to 17(C) show rutin (A), acarbose (B) and docetaxel (C) can promote apoA-I-mediated cholesterol efflux. Primary human skin fibroblasts were labelled with 0.2 μCi/ml of [^3H]-cholesterol during growth, loaded with 30 μg/ml of unlabeled cholesterol for 24 h, equilibrated for 24 h, and treated with 5 μg/ml of apoA-I for 24 h to determine efflux of cellular cholesterol by apoA-I. The indicated concentrations of rutin, acarbose and docetaxel were added during the equilibration and apoA-I treatment period. Results are expressed as percentage of total (cell plus medium) [^3H]-sterol appearing in the medium. Values are the mean+SD of quadruplicate determinations. One-way analysis of variance with Dunnett's post-hoc correction was performed to calculate multiplicity-adjusted P values. *P<0.05; **P<0.001; ***P<0.0001 compared with the group treated with apoA-I alone.
To investigate the biological activity of the 51 compounds identified in Example 3 in modulating HDL biogenesis, we performed an apoA-I-mediated cholesterol efflux study as described previously (see Choi, H. Y. et al., J Biol Chem 278, 32569-32577 (2003)).

C[C@H]1O[C@H](O[C@H]2[C@H](O)[C@@H](O)[C@@H](O[C@H]3[C@H](O)[C@@H](O)C(O)O[C@@H]3CO)O[C@@H]2CO)[C@H](O)[C@@H](O)[C@@H]1N[C@H]1C=C(CO)[C@@H](O)[C@H](O)[C@H]1O (stereo partly shown) [No. 2, Acarbose] showed an EC50 (read-out: EC50 value, promotion of apoA-I-mediated HDL biogenesis) of 6.59 µM.
For CC(=O)O[C@@]12CO[C@@H]1C[C@H](O)[C@@]1(C)C(=O)[C@H](O)C3=C(C)[C@@H](OC(=O)[C@H](O)[C@@H](NC(=O)OC(C)(C)C)c4ccccc4)C[C@@](O)([C@@H](OC(=O)c4ccccc4)[C@H]21)C3(C)C [No. 17, Docetaxel], the “effect on apoA-I-mediated cholesterol efflux” value (FIG. 17, compared with the group treated with apoA-I alone) was “promote”, the EC50 (read-out: half-maximal effective concentration (EC50), promotion of apoA-I-mediated HDL biogenesis) was 0.00072 µM and the “potency rank in promoting HDL biogenesis among the 3 most active compounds” value (dose-response curves, FIG. 17) was “most potent”.
